Reference: patent US12605411B2, “Phospholipid compositions for delivery of therapeutic compounds” (Aker BioMarine Human Ingredients AS, priority 2022, dated 2026)
In brackets after ≈: the same amount, converted by molar mass. Values belong to the compound of their own block, whether it stands above or below them.

Assays:
[1] = Plasma CBD concentration after dosing (FIG. 5); type: in vivo
[2] = humans, taken orally; cited from earlier work
[3] = CoQ10 absorption in plasma after single dose, clinical study; type: in vivo, human
Description: The purpose of the study was to investigate compare the CoQ10 level of absorption in the plasma of a phospholipid krill oil+CoQ10 product to a comparator CoQ10-product (without any krill oil).
Absorption levels of CoQ10 in plasma were measured at time (T)=0, 2, 4, 6 and 8 hours after the single-dose (2 soft gels) intake of the study products. A 7-day minimum washout period between the two doses was specified.
A total of 13 subjects successfully completed the study.

[4] = cited from earlier work
[5] = cited from earlier work; remark: listed apart in the source

Compound: C=C(C)[C@@H]1CCC(C)=C[C@H]1c1c(O)cc(CCCCC)cc1O [CBD, Cannabidiol]
- increase of bioavailability of CBD ([1]; krill oil compared to MCT, FIG. 5): 3 fold
- absorption of CBD (plasma CBD concentration) ([1]; krill oil vs medium chain triglyceride (MCT) oil): much greater extent
- bioavailability [2]: around 6%

- absorption of CoQ10 in plasma, change from baseline (in words) ([3]; 0-8 hours after single dose, 13 subjects): No significant absorption
- Change of plasma CoQ10 from baseline ([3]; 2 hours): −11.49%
- Change of plasma CoQ10 from baseline ([3]; 4 hours): −4.53%
- Change of plasma CoQ10 from baseline ([3]; 6 hours): 1.71%
- Change of plasma CoQ10 from baseline ([3]; 8 hours): 6.15%
- concentration at 2 h ([3]; human, plasma, oral, 2 soft gels, 2 hours after single dose): 8780 ng/mL
- concentration at 4 h ([3]; human, plasma, oral, 2 soft gels, 4 hours after single dose): 9570 ng/mL
- concentration at 6 h ([3]; human, plasma, oral, 2 soft gels, 6 hours after single dose): 10100 ng/mL
- concentration at 8 h ([3]; human, plasma, oral, 2 soft gels, 8 hours after single dose): 10500 ng/mL
- concentration at 0 h ([3]; human, plasma, oral, 2 soft gels, Baseline): 9920 ng/mL
Compound: COC1=C(OC)C(=O)C(C/C=C(\C)CC/C=C(\C)CC/C=C(\C)CC/C=C(\C)CC/C=C(\C)CC/C=C(\C)CC/C=C(\C)CC/C=C(\C)CC/C=C(\C)CCC=C(C)C)=C(C)C1=O [CoQ10, Coenzyme Q10]

Compound: O=c1c(O)c(-c2ccc(O)c(O)c2)oc2cc(O)ccc12 [Fisetin]
- logP [4]: 1.81-2.03
- solubility [5]: < 1 mg/mL
- Solubility ethanol [5]: 5 mg/mL (≈ 17.5 mM)
- Solubility water ([5]; water): 0.15 mg/mL (≈ 0.524 mM)

Compound: O=c1c(O)c(-c2ccc(O)c(O)c2)oc2cc(O)cc(O)c12 [Quercetin]
- logP [4]: 1.50
- Solubility ethanol [5]: 2 mg/mL (≈ 6.62 mM)
